Laboratory results reported in patent US11008317B2, “Triazolopyridine inhibitors of myeloperoxidase and/or EPX” (priority 2016, dated 2021).
Where a name gives a salt, the structure may show the parent alone.

Key:
myeloperoxidase [1] = biological target: T1, myeloperoxidase (Homo sapiens, UniProt P05164); experiment: MPO Chlorination Assay (APF Assay); assay type: biochemical; settings: potency range class, read-out: APF Assay IC50 value
T1 sequence (P05164 49-745): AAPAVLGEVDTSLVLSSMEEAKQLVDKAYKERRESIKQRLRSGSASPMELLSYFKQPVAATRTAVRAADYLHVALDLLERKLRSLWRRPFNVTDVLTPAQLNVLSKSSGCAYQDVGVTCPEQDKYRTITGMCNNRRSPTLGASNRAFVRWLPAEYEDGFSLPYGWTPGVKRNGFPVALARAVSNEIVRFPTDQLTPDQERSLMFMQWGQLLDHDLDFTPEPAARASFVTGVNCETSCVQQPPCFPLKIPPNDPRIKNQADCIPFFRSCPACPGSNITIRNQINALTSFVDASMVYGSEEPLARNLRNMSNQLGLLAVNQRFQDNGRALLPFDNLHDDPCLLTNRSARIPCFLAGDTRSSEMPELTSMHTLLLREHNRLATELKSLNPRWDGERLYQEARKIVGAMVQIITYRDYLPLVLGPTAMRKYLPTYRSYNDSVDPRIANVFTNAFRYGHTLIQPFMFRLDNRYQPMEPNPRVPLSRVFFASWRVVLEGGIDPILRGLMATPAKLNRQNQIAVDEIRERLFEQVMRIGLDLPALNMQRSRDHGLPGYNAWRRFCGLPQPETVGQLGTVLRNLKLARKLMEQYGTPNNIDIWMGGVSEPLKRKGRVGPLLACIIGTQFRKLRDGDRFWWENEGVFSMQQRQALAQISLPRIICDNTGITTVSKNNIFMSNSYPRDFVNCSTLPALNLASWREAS

myeloperoxidase [2] = biological target: T1, myeloperoxidase; experiment: MPO Peroxidation Assay (Amplex Red Assay); assay type: biochemical; settings: potency range class, read-out: Amplex Red Assay IC50 value

Compound	IC50 (myeloperoxidase [1]) [nM]	IC50 (myeloperoxidase [2]) [nM]
CN(CC[C@H](c1ccccc1)c1cc(N)nc2[nH]nnc12)[C@H]1CC[C@H](c2ccccc2)CC1 (stereo in doubt) [Example 178, 7-(3-(methyl(4-phenylcyclohexyl)amino)-1-phenylpropyl)-3H-[1,2,3]triazolo[4,5-b]pyridin-5-amine]	1 to 100	101 to 999
Nc1cc(C(CCNCc2ccc3ccccc3c2)c2ccccc2)c2nn[nH]c2n1 (stereo not drawn) [Example 16, 7-(3-{[(naphthalen-2-yl)methyl]amino}-1-phenylpropyl)-3H-[1,2,3]triazolo[4,5-b] pyridin-5-amine]	1 to 100	101 to 999
Nc1cc(C(CCNCc2cccc3ccccc23)c2ccccc2)c2nn[nH]c2n1 (stereo not drawn) [Example 17, 7-(3-((naphthalen-1-ylmethyl)amino)-1-phenylpropyl)-3H-[1,2,3]triazolo[4,5-b]pyridin-5-amine]	1 to 100	101 to 999
CC(C)(C)CNCCC(c1ccccc1)c1cc(N)nc2[nH]nnc12 (stereo not drawn) [Example 20, 7-{3-[(2,2-dimethylpropyl)amino]-1-phenylpropyl}-3H-[1,2,3]triazolo[4,5-b]pyridin-5-amine]	1000 to 10000	101 to 999
Nc1cc(C(CCNC23CC4CC(CC(C4)C2)C3)c2ccccc2)c2nn[nH]c2n1 (stereo not drawn) [Example 21, 7-{3-[(adamantan-1-yl)amino]-1-phenylpropyl}-3H-[1,2,3]triazolo[4,5-b]pyridin-5-amine]	101 to 999	101 to 999
Nc1cc(C(CCNCC23CC4CC(CC(C4)C2)C3)c2ccccc2)c2nn[nH]c2n1 (stereo not drawn) [Example 22, 7-(3-{[(adamantan-1-yl)methyl]amino}-1-phenylpropyl)-3H-[1,2,3]triazolo[4,5-b] pyridin-5-amine]	101 to 999	101 to 999
Nc1cc(C(CCNCC2CCCCC2)c2ccccc2)c2nn[nH]c2n1 (stereo not drawn) [Example 23, 7-{3-[(cyclohexylmethyl)amino]-1-phenylpropyl}-3H-[1,2,3]triazolo[4,5-b] pyridin-5-amine]	101 to 999	101 to 999
Cc1cccc(C)c1CNCCC(c1ccccc1)c1cc(N)nc2[nH]nnc12 (stereo not drawn) [Example 27, 7-(3-{[(2,6-dimethylphenyl)methyl]amino}-1-phenylpropyl)-3H-[1,2,3]triazolo[4,5-b] pyridin-5-amine]	101 to 999	101 to 999
Nc1cc(C(CCNC(Cc2ccccc2)c2ccccc2)c2ccccc2)c2nn[nH]c2n1 (stereo not drawn) [Example 45, 7-{3-[(1,2-diphenylethyl)amino]-1-phenylpropyl}-3H-[1,2,3]triazolo[4,5-b] pyridin-5-amine]	101 to 999	101 to 999
Nc1cc(C(CCNC2c3ccccc3CC2c2ccccc2)c2ccccc2)c2nn[nH]c2n1 (stereo not drawn) [Example 46, 7-{1-phenyl-3-[(2-phenyl-2,3-dihydro-1H-inden-1-yl)amino]propyl}-3H-[1,2,3]triazolo [4,5-b]pyridin-5-amine]	101 to 999	101 to 999
Nc1cc(C(CCNC(Cc2ccccc2)c2ccccc2)c2ccccc2)c2nn[nH]c2n1 (stereo not drawn) [Example 47, 7-{3-[(1,2-diphenylethyl)amino]-1-phenylpropyl}-3H-[1,2,3]triazolo[4,5-b]pyridin-5-amine]	101 to 999	1000 to 10000
Nc1cc(C(CCNC(Cc2ccccc2)c2ccccc2)c2ccccc2)c2nn[nH]c2n1 (stereo not drawn) [Example 48, 7-{3-[(1,2-diphenylethyl)amino]-1-phenylpropyl}-3H-[1,2,3]triazolo[4,5-b]pyridin-5-amine]	1 to 100	101 to 999
Nc1cc(C(CCNCc2cccc(C(F)(F)F)c2)c2ccccc2)c2nn[nH]c2n1 (stereo not drawn) [Example 53, 7-[1-phenyl-3-({[3-(trifluoromethyl)phenyl]methyl}amino)propyl]-3H-[1,2,3]triazolo[4,5-b]pyridin-5-amine]	101 to 999	101 to 999
Nc1cc(C(CCNCc2ccc(C(F)(F)F)cc2)c2ccccc2)c2nn[nH]c2n1 (stereo not drawn) [Example 54, 7-[1-phenyl-3-({[4-(trifluoromethyl)phenyl]methyl}amino)propyl]-3H-[1,2,3]triazolo[4,5-b]pyridin-5-amine]	101 to 999	101 to 999
Nc1cc(C(CCNC2c3ccccc3CC2c2ccccc2)c2ccccc2)c2nn[nH]c2n1 (stereo not drawn) [Example 55, 7-{1-phenyl-3-[(2-phenyl-2,3-dihydro-1H-inden-1-yl)amino]propyl}-3H-[1,2,3] triazolo[4,5-b] pyridin-5-amine]	101 to 999	1000 to 10000
Nc1cc(C(CCNC2c3ccccc3CC2c2ccccc2)c2ccccc2)c2nn[nH]c2n1 (stereo not drawn) [Example 56, 7-{1-phenyl-3-[(2-phenyl-2,3-dihydro-1H-inden-1-yl)amino]propyl}-3H-[1,2,3]triazolo[4,5-b] pyridin-5-amine]	1 to 100	101 to 999
Nc1cc(C(CCN[C@H]2CCc3ccc(F)cc32)c2ccccc2)c2nn[nH]c2n1 (stereo partly drawn) [Example 57, 7-(3-{[(1S)-6-fluoro-2,3-dihydro-1H-inden-1-yl]amino}-1-phenylpropyl)-3H-[1,2,3]triazolo[4,5-b]pyridin-5-amine]	1 to 100	101 to 999
Nc1cc(C(CCN[C@H]2CCc3cc(F)ccc32)c2ccccc2)c2nn[nH]c2n1 (stereo partly drawn) [Example 58, 7-(3-{[(1S)-5-fluoro-2,3-dihydro-1H-inden-1-yl]amino}-1-phenylpropyl)-3H-[1,2,3]triazolo[4,5-b]pyridin-5-amine]	1 to 100	101 to 999
COC(=O)c1cccc(CNCCC(c2ccccc2)c2cc(N)nc3[nH]nnc23)c1 (stereo not drawn) [Example 59, methyl 3-{[(3-{5-amino-3H-[1,2,3]triazolo [4,5-b]pyridin-7-yl}-3-phenylpropyl)amino]methyl} benzoate]	101 to 999	101 to 999
Nc1cc(C(CCN[C@@H]2CCc3ccc(F)cc32)c2ccccc2)c2nn[nH]c2n1 (stereo partly drawn) [Example 60, 7-(3-{[(1R)-6-fluoro-2,3-dihydro-1H-inden-1-yl]amino}-1-phenylpropyl)-3H-[1,2,3]triazolo[4,5-b]pyridin-5-amine]	1 to 100	101 to 999

Further lines, results first:

IC50 (myeloperoxidase [1]) [nM]	IC50 (myeloperoxidase [2]) [nM]	Compound
101 to 999	101 to 999	Nc1cc(C(CCOC2CCc3ccccc32)c2ccccc2)c2nn[nH]c2n1 (single isomer, unassigned) [Example 231, 7-(3-((2,3-dihydro-1H-inden-1-yl)oxy)-1-phenylpropyl)-3H-[1,2,3]triazolo[4,5-b]pyridin-5-amine]
101 to 999	101 to 999	CC(C)(NCCC(c1ccccc1)c1cc(N)nc2[nH]nnc12)c1ccccc1 (stereo not drawn) [Example 14, 7-{1-phenyl-3-[(2-phenylpropan-2-yl)amino]propyl}-3H-[1,2,3]triazolo[4,5-b]pyridin-5-amine]
101 to 999	1 to 100	Nc1cc(C(CCNS(=O)(=O)c2ccccc2)c2ccccc2)c2nn[nH]c2n1 (stereo not drawn) [Example 15, N-(3-(5-amino-3H-[1,2,3]triazolo[4,5-b]pyridin-7-yl)-3-phenylpropyl)benzenesulfonamide, TFA]
1000 to 10000	101 to 999	Nc1cc(C(CCNC(c2ccccc2)C(F)(F)F)c2ccccc2)c2nn[nH]c2n1 (stereo not drawn) [Example 24, 7-{1-phenyl-3-[(2,2,2-trifluoro-1-phenylethyl)amino]propyl}-3H-[1,2,3]triazolo[4,5-b]pyridin-5-amine]
1 to 100	101 to 999	Nc1cc(C(CCNC2CCCc3ccccc32)c2ccccc2)c2nn[nH]c2n1 (stereo not drawn) [Example 25, 7-{1-phenyl-3-[(1,2,3,4-tetrahydronaphthalen-1-yl)amino]propyl}-3H-[1,2,3] triazolo[4,5-b] pyridin-5-amine]
1 to 100	1 to 100	Nc1cc(C(CCNC2CCCc3ccccc32)c2ccccc2)c2nn[nH]c2n1 (stereo not drawn) [Example 28, 7-{1-phenyl-3-[(1,2,3,4-tetrahydronaphthalen-1-yl)amino]propyl}-3H-[1,2,3]triazolo [4,5-b]pyridin-5-amine]
1 to 100	1 to 100	Nc1cc(C(CCNC2CCCc3ccccc32)c2ccccc2)c2nn[nH]c2n1 (stereo not drawn) [Example 29, 7-{1-phenyl-3-[(1,2,3,4-tetrahydronaphthalen-1-yl)amino]propyl}-3H-[1,2,3]triazolo [4,5-b]pyridin-5-amine]
101 to 999	101 to 999	Nc1cc(C(Cc2ccccn2)c2ccccc2)c2nn[nH]c2n1 (stereo not drawn) [Example 38, 7-(1-phenyl-2-(pyridin-2-yl)ethyl)-3H-[1,2,3]triazolo[4,5-b]pyridin-5-amine]
1000 to 10000	101 to 999	Nc1cc(C(CCNC(=O)c2ccccc2)c2ccccc2)c2nn[nH]c2n1 (stereo not drawn) [Example 39, N-(3-(5-amino-3H-[1,2,3]triazolo[4,5-b]pyridin-7-yl)-3-phenylpropyl)benzamide]
101 to 999	101 to 999	Nc1cc(C(CCNC2Cc3ccccc3C2)c2ccccc2)c2nn[nH]c2n1 (stereo not drawn) [Example 41, 7-{3-[(2,3-dihydro-1H-inden-2-yl)amino]-1-phenylpropyl}-3H-[1,2,3]triazolo[4,5-b]pyridin-5-amine]
